Assay results taken from PubChem BioAssay AID1996.
Values after ≈ are worked out from the molar mass of the structure shown.

conditions: buffer; pH 7.4; 200.0 µM

Q: For `C=C(C)C1CC=C(CN2CCN(Cc3ccccc3)CC2)CC1` (stereo unspecified), which solubility kinetic is on record?
A: Its solubility kinetic is 17.8 µg/mL (≈ 57.3 µM).

Q: For `O=C(COc1ccccc1N1C(=O)C2C3C=CC(C3)C2C1=O)c1ccccc1` (stereo unspecified), which solubility kinetic is on record?
A: Its solubility kinetic is over 56 µg/mL.

Q: For `CN(CC(=O)NCCN1CCOCC1)S(=O)(=O)c1ccc(Cl)cc1`, which solubility kinetic is on record?
A: Its solubility kinetic is over 56.4 µg/mL.

Q: Which solubility kinetic does the source give for `CCCCN(C(=O)Oc1ccccc1)C1CCS(=O)(=O)C1` (stereo unspecified) here?
A: Its solubility kinetic is over 46.7 µg/mL.

Q: Which solubility kinetic does the source give for `O=C(O)CCC(=O)N(Cc1ccccc1)Cc1ccccc1` here?
A: Its solubility kinetic is over 44.6 µg/mL.

Q: With `Cc1ccc(S(=O)(=O)N2CCCCC2c2cccnc2)c(C)c1C` (stereo unspecified) as the compound, how does the solubility kinetic read?
A: The solubility kinetic was 45.9 µg/mL (≈ 133 µM).

Q: With `O=C(Nc1ccccc1)/C(=C\c1ccco1)NC(=O)c1ccco1` as the compound, how does the solubility kinetic read?
A: The solubility kinetic was over 48.3 µg/mL.

Q: For `Cc1nnc(NN2CCOCC2)[nH]c1=O`, which solubility kinetic is on record?
A: Its solubility kinetic is over 31.7 µg/mL.

Q: Which solubility kinetic does the source give for `Cc1ccc(OCCn2cc(C(=O)O)c3ccccc32)cc1` here?
A: Its solubility kinetic is 44.3 µg/mL (≈ 150 µM).

Q: Which solubility kinetic does the source give for `COc1ccc(Nc2nc(N)nc(CN3CCC(C)CC3)n2)cc1` here?
A: Its solubility kinetic is over 49.3 µg/mL.

Q: For `C=CCN=C1SC(C)(C)C(=O)N1S(=O)(=O)c1ccc(C)cc1`, which solubility kinetic is on record?
A: The solubility kinetic was 45.6 µg/mL (≈ 135 µM).

Q: Which solubility kinetic does the source give for `Cc1c(O)ccc(C(=O)CN2CCN(Cc3ccccc3)CC2)c1O` here?
A: Its solubility kinetic is 38.1 µg/mL (≈ 112 µM).

Q: With `O=C(C1CCCCC1)N1CCc2[nH]c3ccc(F)cc3c2C1` as the compound, how does the solubility kinetic read?
A: Its solubility kinetic is 0.4 µg/mL (≈ 1.33 µM).

Q: For `COc1ccccc1OCC(=O)NC1CC(C)(C)NC(C)(C)C1`, which solubility kinetic is on record?
A: Its solubility kinetic is 41.7 µg/mL (≈ 130 µM).

Q: With `N#CC(C#N)=Cc1cccnc1` as the compound, how does the solubility kinetic read?
A: The solubility kinetic was 19.5 µg/mL (≈ 126 µM).

Q: For `O=C(Nc1ccc(Br)cc1)C1Cc2ccccc2O/C1=N\O` (stereo unspecified), which solubility kinetic is on record?
A: The solubility kinetic was under 0.4 µg/mL.

Q: With `CN1CCCN(C(=O)c2ccccc2Cl)CC1` as the compound, how does the solubility kinetic read?
A: The solubility kinetic was over 37.9 µg/mL.

Q: Which solubility kinetic does the source give for `CCC1(C)Cc2ccccc2-c2nc[nH]c(=O)c21` (stereo unspecified) here?
A: Its solubility kinetic is 2.8 µg/mL (≈ 11.7 µM).

Q: With `Cc1onc(-c2ccccc2)c1C(=O)N(Cc1ccccc1)C(C)C` as the compound, how does the solubility kinetic read?
A: The solubility kinetic was over 50.2 µg/mL.

Q: With `COC(=O)c1cc(NC(=O)c2ccc(F)cc2)cc(C(=O)OC)c1` as the compound, how does the solubility kinetic read?
A: The solubility kinetic was 4.9 µg/mL (≈ 14.8 µM).

Q: Which solubility kinetic does the source give for `CN1C(=O)C(=Cc2coc3ccccc3c2=O)C(=O)N(C)C1=O` here?
A: The solubility kinetic was over 46.8 µg/mL.

Q: For `N#Cc1cc(Sc2ccccn2)c([N+](=O)[O-])cc1C#N`, which solubility kinetic is on record?
A: The solubility kinetic was over 42.3 µg/mL.

Q: Which solubility kinetic does the source give for `CN(C)c1nc2ncn(Cc3ccccc3)c2c(=O)[nH]1` here?
A: Its solubility kinetic is over 40.4 µg/mL.

Q: With `CCn1c(SCC(=O)OC(C)C)nnc1-c1ccccc1OC` as the compound, how does the solubility kinetic read?
A: The solubility kinetic was over 50.3 µg/mL.

Q: With `CN(c1ccccc1)S(=O)(=O)c1ccc(-c2ccccc2)cc1` as the compound, how does the solubility kinetic read?
A: Its solubility kinetic is under 0.7 µg/mL.

Q: Which solubility kinetic does the source give for `O=C(C[n+]1ccc(/C=N/O)cc1)NC(=O)Nc1ccccc1` here?
A: Its solubility kinetic is 41.6 µg/mL.

Q: With `O=C(Cn1cnc2ccccc21)Nc1cccc([N+](=O)[O-])c1` as the compound, how does the solubility kinetic read?
A: The solubility kinetic was 42.8 µg/mL (≈ 144 µM).

Q: For `Cc1cc(C)c2oc(-c3cccc(N)c3)nc2c1`, which solubility kinetic is on record?
A: Its solubility kinetic is 3 µg/mL (≈ 12.6 µM).

Q: Which solubility kinetic does the source give for `CC1CCCN(C(=O)c2ccc(-c3ccccc3Cl)o2)C1` (stereo unspecified) here?
A: The solubility kinetic was 10 µg/mL (≈ 32.9 µM).

Q: For `CCOc1ccc(NC(=O)c2ccccc2SC)cc1`, which solubility kinetic is on record?
A: Its solubility kinetic is 2.4 µg/mL (≈ 8.35 µM).

Q: With `O=C(Nc1ncccc1O)c1c(O)c2ccccc2[nH]c1=O` as the compound, how does the solubility kinetic read?
A: Its solubility kinetic is 11.1 µg/mL (≈ 37.3 µM).

Q: Which solubility kinetic does the source give for `CCOC(=O)c1cc(NC(=O)N(C)C2CCCCC2)c(C)nc1C` here?
A: The solubility kinetic was over 50 µg/mL.

Q: With `Cc1sc(NC(=O)C2=COCCO2)c(C#N)c1C` as the compound, how does the solubility kinetic read?
A: Its solubility kinetic is 5.9 µg/mL (≈ 22.3 µM).

Q: For `O=C(c1cc(-c2ccc(F)cc2)on1)N1CCOCC1`, which solubility kinetic is on record?
A: The solubility kinetic was over 41.4 µg/mL.

Q: Which solubility kinetic does the source give for `O=C(NCC(=O)N1CCN(Cc2ccccc2)CC1)c1cc(Cl)cc([N+](=O)[O-])c1` here?
A: The solubility kinetic was over 62.5 µg/mL.

Q: With `CC(C)(C)C(=O)NC1CC2CCCC(C1)N2C(=O)Nc1ccccc1` (stereo unspecified) as the compound, how does the solubility kinetic read?
A: Its solubility kinetic is 12.8 µg/mL (≈ 37.3 µM).

Q: For `S=C(NCCc1ccccc1)N1CCOCC1`, which solubility kinetic is on record?
A: Its solubility kinetic is over 37.6 µg/mL.

Q: With `Cc1cccc(NC(=O)CN2C(=O)CSC2=O)c1` as the compound, how does the solubility kinetic read?
A: The solubility kinetic was over 39.6 µg/mL.

Q: Which solubility kinetic does the source give for `Cc1cccc(C(=O)OC(C)CN2C(C)CCCC2C)c1.Cl` (stereo unspecified) here?
A: The solubility kinetic was over 48.9 µg/mL.

Q: Which solubility kinetic does the source give for `CCS(=O)(=O)N1CCC(C(=O)Nc2cc([N+](=O)[O-])ccc2C)CC1` here?
A: Its solubility kinetic is over 53.3 µg/mL.

Q: For `CC1CCc2sc(C(=O)OCC(=O)NC(N)=O)cc2C1` (stereo unspecified), which solubility kinetic is on record?
A: Its solubility kinetic is 2 µg/mL (≈ 6.75 µM).

Q: With `CC(C)c1ccc(C(=O)NCCCNC(=O)c2cnccn2)cc1` as the compound, how does the solubility kinetic read?
A: Its solubility kinetic is over 49 µg/mL.

Q: For `Cc1cccc(Cc2ncc(C(F)(F)F)cc2Cl)c1`, which solubility kinetic is on record?
A: The solubility kinetic was under 0.6 µg/mL.

Q: With `COc1ccc(-c2noc(=O)n2Cc2ccc(C#N)cc2)cc1` as the compound, how does the solubility kinetic read?
A: Its solubility kinetic is over 46.1 µg/mL.

Q: Which solubility kinetic does the source give for `COc1ccc(C2NC(=O)N(C)C(C)=C2[N+](=O)[O-])cc1` (stereo unspecified) here?
A: Its solubility kinetic is over 41.6 µg/mL.

Q: Which solubility kinetic does the source give for `N#C/C(=C\c1ccccc1)C(=O)OCC(=O)N1CCCC1` here?
A: The solubility kinetic was over 42.6 µg/mL.

Q: With `COc1ccc(CCNC(=O)c2cccs2)cc1OC` as the compound, how does the solubility kinetic read?
A: Its solubility kinetic is 33.8 µg/mL (≈ 116 µM).

Q: With `O=C(NCc1csc2ccccc12)Nc1cc(Cl)cc(Cl)c1` as the compound, how does the solubility kinetic read?
A: Its solubility kinetic is 2.1 µg/mL (≈ 5.98 µM).

Q: With `Cc1cccnc1NC(=S)NCc1ccco1` as the compound, how does the solubility kinetic read?
A: Its solubility kinetic is 31.4 µg/mL (≈ 127 µM).

Q: For `Cc1ccc(Cn2c(=O)oc3ccccc32)cc1`, which solubility kinetic is on record?
A: The solubility kinetic was 1 µg/mL (≈ 4.18 µM).

Q: With `CNC(=O)NC(=O)COc1ccc2oc3c(c2c1)CCCC3` as the compound, how does the solubility kinetic read?
A: Its solubility kinetic is 2 µg/mL (≈ 6.62 µM).

Q: For `COc1ccccc1NC(=S)NCc1ccccc1`, which solubility kinetic is on record?
A: Its solubility kinetic is 14.8 µg/mL (≈ 54.3 µM).

Q: For `CCC1CCCCN1S(=O)(=O)c1ccc([N+](=O)[O-])cc1` (stereo unspecified), which solubility kinetic is on record?
A: Its solubility kinetic is 34.3 µg/mL (≈ 115 µM).

Q: For `CCc1ncc(C)[nH]1`, which solubility kinetic is on record?
A: Its solubility kinetic is over 16.5 µg/mL.

Q: With `O=C(CSCc1ccccc1)Nc1ccccc1` as the compound, how does the solubility kinetic read?
A: Its solubility kinetic is over 38.6 µg/mL.

Q: For `O=C(CSc1cccc[n+]1[O-])NC1CCCCC1`, which solubility kinetic is on record?
A: The solubility kinetic was over 40 µg/mL.

Q: With `CC(C)[C@H](NC(=O)c1ccccc1)C(=O)NCCc1ccccc1` as the compound, how does the solubility kinetic read?
A: The solubility kinetic was 10.3 µg/mL (≈ 31.7 µM).

Q: Which solubility kinetic does the source give for `Cn1c(=O)c2c(nc(SCC(=O)N3CCOCC3)n2C)n(C)c1=O` here?
A: Its solubility kinetic is over 53 µg/mL.

Q: Which solubility kinetic does the source give for `O=[N+]([O-])c1ccc(-c2cnc3ccccc3n2)cc1` here?
A: The solubility kinetic was 0.6 µg/mL (≈ 2.39 µM).

Q: Which solubility kinetic does the source give for `O=Cc1cccc(Oc2ncccn2)c1` here?
A: The solubility kinetic was over 30 µg/mL.

Q: With `COc1c(Cl)cccc1-c1cn2ccccc2n1` as the compound, how does the solubility kinetic read?
A: Its solubility kinetic is 2 µg/mL (≈ 7.73 µM).
